Legend:
barnyard grass [1] = assay: Test Example 3: herbicidal effect by foliage application, Wagner pot (Table 18, symbol H); type: in vivo, barnyard grass (Echinochloa crus-galli); details: amount of applied herbicide 320 g/ha
Outline: (§1)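 Plants were sown in alluvial soil held under 0.1–0.5 cm standing water and grown 14 days in a greenhouse at 25–30 °C. An emulsifiable formulation, water-diluted to the set dose, was then sprayed onto the foliage, and effects were scored three weeks later using previously defined criteria.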

corn = assay: Test Example 4: effect on crop by soil treatment (Table 19, symbol c); type: in vivo; details: amount of applied herbicide 320 g/ha
Description: (§2) [Test Example 4] Herbicidal Effect Test by Soil Treatment
(§3) Sterilized diluvial soil was placed in a plastic box having a length of 21 cm, a width of 13 cm, and a depth of 7 cm. The seeds of each of southern crabgrass, green foxtail, barnyard grass, wild oat, blackgrass, Italian ryegrass, windgrass, velvetleaf, redroot pigweed, lambsquarters, chickweed, false cleavers, persian speedwell, corn, soybean, rice, wheat, beet, and rapeseed were sowed in a spot-like manner and covered with the soil having a thickness of about 1.5 cm. Subsequently, the emulsion agent of the compound of the present invention prepared according to Formulation Example 2 was diluted with water so as to achieve a predetermined herbicide amount, and the diluted emulsion agent was uniformly applied to the surface of the soil with a small-sized spray. The plastic box was placed in a greenhouse at 25° C. to 30° C. for growth of the plants. Three weeks after the herbicide application, the effect of the herbicide on each plant was evaluated according to the criteria of Test Example 1.

directly sowed rice = assay: Test Example 3: effect on crop by foliage application, Wagner pot (Table 18, symbol b); type: in vivo; details: amount of applied herbicide 320 g/ha
Method: [Test Example 3] Herbicidal Effect Test by Foliage Application After alluvial soil was placed into 1/10000 are of Wagner pot, water was poured and mixed to form a submerged condition having a water depth of 0.1 cm to 0.5 cm. Seeds of barnyard grass, Chinese sprangletop, rice flat sedge, and rice were sowed and the pot was placed in a greenhouse at 25° C. to 30° C. for growth of the plants. After 14-day growth of the plants, the emulsion agent of the compound of the present invention prepared according to Formulation Example 2 was diluted with water so as to achieve a predetermined herbicide amount, and the diluted emulsion agent was uniformly applied to a foliage part with a small-sized spray. Three weeks after the herbicide application, the effect of the herbicide on each plant was evaluated according to the criteria of Test Example 1.

rice flat sedge = assay: Test Example 3: herbicidal effect by foliage application, Wagner pot (Table 18, symbol E); type: in vivo, rice flat sedge (Cyperus iria); details: amount of applied herbicide 320 g/ha
Outline: as §1

blackgrass = assay: Test Example 4: herbicidal effect by soil treatment (Table 19, symbol J); type: in vivo, blackgrass (Alopecurus myosuroides); details: amount of applied herbicide 320 g/ha
Outline: (§4)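 Herbicidal effect was rated 3 weeks after treatment, using the scoring criteria of an earlier test. The compound, formulated as an emulsion and diluted in water to a set herbicide amount, had been sprayed uniformly on soil over freshly sown seeds. Growth took place in a greenhouse at 25° C. to 30° C.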

wild oat = assay: Test Example 4: herbicidal effect by soil treatment (Table 19, symbol I); type: in vivo, wild oat (Avena fatua); details: amount of applied herbicide 320 g/ha
Outline: as §4

lambsquarters = assay: Test Example 4: herbicidal effect by soil treatment (Table 19, symbol O); type: in vivo, lambsquarters (Chenopodium album); details: amount of applied herbicide 320 g/ha
Outline: as §4

beet = assay: Test Example 4: effect on crop by soil treatment (Table 19, symbol f); type: in vivo; details: amount of applied herbicide 320 g/ha
Description: as §2, §3

southern crabgrass = assay: Test Example 4: herbicidal effect by soil treatment (Table 19, symbol F); type: in vivo, southern crabgrass (Digitaria ciliaris); details: amount of applied herbicide 320 g/ha
Outline: as §4

velvetleaf = assay: Test Example 4: herbicidal effect by soil treatment (Table 19, symbol M); type: in vivo, velvetleaf (Abutilon theophrasti); details: amount of applied herbicide 320 g/ha
Outline: as §4

windgrass = assay: Test Example 4: herbicidal effect by soil treatment (Table 19, symbol L); type: in vivo, windgrass (Apera spica-venti); details: amount of applied herbicide 320 g/ha
Outline: as §4

barnyard grass [2] = assay: Test Example 4: herbicidal effect by soil treatment (Table 19, symbol H); type: in vivo, barnyard grass (Echinochloa crus-galli); details: amount of applied herbicide 320 g/ha
Outline: as §4

green foxtail = assay: Test Example 4: herbicidal effect by soil treatment (Table 19, symbol G); type: in vivo, green foxtail (Setaria viridis); details: amount of applied herbicide 320 g/ha
Outline: as §4

Italian ryegrass = assay: Test Example 4: herbicidal effect by soil treatment (Table 19, symbol K); type: in vivo, Italian ryegrass (Lolium multiflorum); details: amount of applied herbicide 320 g/ha
Outline: as §4

soybean = assay: Test Example 4: effect on crop by soil treatment (Table 19, symbol d); type: in vivo; details: amount of applied herbicide 320 g/ha
Description: as §2, §3

redroot pigweed = assay: Test Example 4: herbicidal effect by soil treatment (Table 19, symbol N); type: in vivo, redroot pigweed (Amaranthus retroflexus); details: amount of applied herbicide 320 g/ha
Outline: as §4

rapeseed = assay: Test Example 4: effect on crop by soil treatment (Table 19, symbol g); type: in vivo; details: amount of applied herbicide 320 g/ha
Description: as §2, §3

Chinese sprangletop = assay: Test Example 3: herbicidal effect by foliage application, Wagner pot (Table 18, symbol D); type: in vivo, chinese sprangletop (Leptochloa chinensis); details: amount of applied herbicide 320 g/ha
Outline: as §1

wheat = assay: Test Example 4: effect on crop by soil treatment (Table 19, symbol e); type: in vivo; details: amount of applied herbicide 320 g/ha
Description: as §2, §3

For `COc1ccccc1-c1sc2ccc(SC(F)(F)F)cc2c1-c1c(O)c(C)nn(C)c1=O` [Compound No. 2-378, 5-hydroxy-4-(2-(2-methoxyphenyl)-5-((trifluoromethyl)thio)benzo[b]thiophen-3-yl)-2,6-di methylpyridazin-3(2H)-one], the “herbicidal effect on H: barnyard grass” value (barnyard grass [1]) was 5 (Herbicidal rate of 90% or more (almost completely withered)), the “effect on crop, c: corn” value (corn) was 0 (Herbicidal rate of 5% or less (almost no effect)) and the “effect on crop b: directly sowed rice” value (directly sowed rice) was 0 (Herbicidal rate of 5% or less (almost no effect)). The “herbicidal effect on E: rice flat sedge” value (rice flat sedge) was 3 (Herbicidal rate of 40% or more and less than 70%), the “herbicidal effect, J: blackgrass” value (blackgrass) was 0 (Herbicidal rate of 5% or less (almost no effect)) and the “herbicidal effect, I: wild oat” value (wild oat) was 0 (Herbicidal rate of 5% or less (almost no effect)). For the same molecule, the “herbicidal effect, O: lambsquarters” value (lambsquarters) was 2 (Herbicidal rate of 20% or more and less than 40%), the “effect on crop, f: beet” value (beet) was 0 (Herbicidal rate of 5% or less (almost no effect)) and the “herbicidal effect, F: southern crabgrass” value (southern crabgrass) was 0 (Herbicidal rate of 5% or less (almost no effect)). The melting point was 183 to 186 °C, the “herbicidal effect, M: velvetleaf” value (velvetleaf) was 0 (Herbicidal rate of 5% or less (almost no effect)) and the “herbicidal effect, L: windgrass” value (windgrass) was 0 (Herbicidal rate of 5% or less (almost no effect)). The “herbicidal effect, H: barnyard grass” value (barnyard grass [2]) was 0 (Herbicidal rate of 5% or less (almost no effect)), the “herbicidal effect, G: green foxtail” value (green foxtail) was 0 (Herbicidal rate of 5% or less (almost no effect)) and the “herbicidal effect, K: Italian ryegrass” value (Italian ryegrass) was 0 (Herbicidal rate of 5% or less (almost no effect)). For the same molecule, the “effect on crop, d: soybean” value (soybean) was 0 (Herbicidal rate of 5% or less (almost no effect)), the “herbicidal effect, N: redroot pigweed” value (redroot pigweed) was 4 (Herbicidal rate of 70% or more and less than 90%) and the “effect on crop, g: rapeseed” value (rapeseed) was 0 (Herbicidal rate of 5% or less (almost no effect)). The “herbicidal effect on D: Chinese sprangletop” value (Chinese sprangletop) was 5 (Herbicidal rate of 90% or more (almost completely withered)) and the “effect on crop, e: wheat” value (wheat) was 0 (Herbicidal rate of 5% or less (almost no effect)).

— patent publication US20230085307A1, “PYRIDAZINONE COMPOUND AND HERBICIDE” (NISSAN CHEMICAL CORPORATION, priority 2019, published 2023)
